What all share (assay type): binding
The target in experiment [1] is T1, LysG (Corynebacterium glutamicum, UniProt P94632).
T1 sequence (P94632 1-290): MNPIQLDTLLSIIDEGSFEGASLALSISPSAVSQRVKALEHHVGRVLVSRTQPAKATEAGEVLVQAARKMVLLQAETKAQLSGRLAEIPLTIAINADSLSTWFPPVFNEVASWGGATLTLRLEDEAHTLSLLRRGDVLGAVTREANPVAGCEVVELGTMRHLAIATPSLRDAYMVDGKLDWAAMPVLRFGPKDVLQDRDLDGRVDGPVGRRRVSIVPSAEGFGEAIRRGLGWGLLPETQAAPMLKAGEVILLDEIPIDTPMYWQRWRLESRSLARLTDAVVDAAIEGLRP
In words: ITC with purified protein (fixed stoichiometry of two ligands per tetramer).

The target in experiment [2] is T2, LysG-A219L (Corynebacterium glutamicum, UniProt P94632, A219L). The description is as above.
Experiment [3] concerns the target T1, LysG. In words: X-ray co-crystal structure ([…] Å) and ITC. Details: full-length LysG.
In experiment [4] the target is T1, LysG. The experiment in a line: ITC with purified protein.
Experiment [5] addresses T2, LysG-A219L. The experiment in a line: ITC with purified protein.

The structures appear in SMILES notation.

Three molecules from article PMC7519686, “Engineering and application of a biosensor with focused ligand specificity” (Nature Communications, 2020) can be followed below.

In turn, `NCCCC[C@H](N)C(=O)O` [L-lysine] returned a dissociation constant (Kd) on LysG [1] of 3.29 mM.
Turning to `N=C(N)NCCC[C@H](N)C(=O)O` [L-arginine], the Kd at LysG-A219L [2] stood at 9.62 mM; at LysG [3], 1.15 mM.
For the molecule `N[C@@H](Cc1c[nH]cn1)C(=O)O` [L-histidine], the Kd at LysG [4] is 0.016 mM; on LysG-A219L [5], 0.0207 mM.

As usually defined, the Kd is the equilibrium constant for the complex coming apart. Low readings indicate tighter binding, high ones weaker binding.
